From patent USRE48164E1, “Compounds and compositions for delivering active agents” (EMISPHERE TECHNOLOGIES INC., priority 2007, dated 2020) come the findings set out here.

Series [1] has as its system male, Sprague-Dawley rats. The experiment in a line: Oral Delivery of Insulin in Rats: whole blood glucose after oral gavage of insulin with delivery agent compound. Format: in vivo, rat. Conditions: sodium salt of delivery agent. The method, then:
Human recombinant insulin (ICN Biomedicals, Aurora, Ohio) was dissolved in deionized water (ph˜6.5) to obtain stock insulin solutions having a concentration of 15 mg/ml. Sodium salts of the delivery agent compounds shown below in table 1 dissolved in deionized water to obtain a 200 mg/ml delivery agent solution. The free acid form of delivery agent as converted to the sodium salt by adding one equivalent of sodium hydroxide. Solutions were vortexted, sonicated, and heated. If necessary, additional sodium hydroxide was added in μl quantities to achieve uniform solubility in the delivery agent solutions. Solutions were adjusted to a pit of 3.5-8.5 by the addition of either hydrochloric acid or sodium hydroxide, as appropriate. The insulin stock solution was then added to the delivery agent solutions to obtain an administration solution ultimately having an insulin concentration of 0.5 mg/ml. After solubilization and drug addition, administration solutions were brought to a final volume by the addition of deionized water.
Insulin was administered to male, Sprague-Dawley rats either alone or in combination with delivery agent by oral gavage (PO). Rats, weighing 0.22 to 0.27 kg, were fasted for 18-24 hours prior to dosing. A Rusch 8 French catheter was cut to 11 cm in length and adapted to fit a 1 ml syringe. The syringe was filled with dosing solution and the catheter was inserted into the at mouth and fed down the esophagus (10.0 cm). The dosing solution was delivered by pressing the syringe plunger while holding the rat in an upright position. The doses of delivery agent and insulin were 200 mg/kg and […], respectively unless noted otherwise in Table 1. The dose volume was […].
Immediate to each blood sampling point, rats were exposed briefly (˜10 seconds) to carbon dioxide until prostrate. A 77-nun capillary tube was inserted into the retroorbital sinus. Typically, blood samples were collected prior to dosing (time=0) and at 15, 30, 45, and 60 minutes after dosing.
To determine the pharmacodynamic response, a hand-held glucometer (OneTouch Ultra, LifeScan—Johnson & Johnson, New Brunswick, N.J.) was used to measure whole blood glucose after administration of insulin or insulin and delivery agent. After discarding the first drop of blood, a small sample (˜5-10 μls) was touched to the glucometer test strip (OneTouch Ultra, LifeScan) and a blood glucose reading was generated by the meter. Samples at the times indicated below in Table 1 after dosing.

Setting [2] is: insulin 0.5 mg/kg, delivery agent 200 mg/kg, time period 30 minutes.
The mark [3] stands for this setting: insulin 0.5 mg/kg, delivery agent 100 mg/kg, time period 45 minutes.
Where [4] appears, read: insulin 0.5 mg/kg, delivery agent 100 mg/kg, time period 30 minutes.

In the case of `CC(C)(Oc1ccc(Cl)cc1)C(=O)NCCCCCC(=O)O` [Compound 10, 6-[2-(4-Chlorophenoxy)-2-methylpropionyl]-aminohexanoic acid], the “Average Glucose Reduction (5 rats/experiment)” value in series [1] (setting [2]) was 2.5%.
Turning to `O=C(O)CCCOc1cccc(F)c1` [Compound 7, 4-(3-Fluorophenoxy)butyric acid], the melting point (as a rule, the temperature, or range, at which the solid turns liquid) fell in the range of 53 to 54 °C.
In turn, `O=C(O)CCCOc1ccccc1Cl` [Compound 8, 4-(2-Chlorophenoxy)butanoic acid] registered a melting point of 85 to 87 °C.
Turning to `CC(=O)c1cccc(OCCCCCC(=O)O)c1` [Compound 2, 6-(3-Acetylphenoxy)hexanoic acid], the “Average Glucose Reduction (5 rats/experiment)” value is listed as −25.8% in series [1] (insulin 0.5 mg/kg, delivery agent 25 mg/kg, time period 45 minutes); −30.2% in series [1] (insulin 0.5 mg/kg, delivery agent 50 mg/kg, time period 45 minutes); −50.8% in series [1] (setting [3]).
Consider `Cc1cc(F)ccc1OCCCC(=O)O` [Compound 11, 4-(4-Fluoro-2-methyl-phenoxy)-butyric aid], for which the “Average Glucose Reduction (5 rats/experiment)” value in series [1] (setting [2]) was −63.7%; in series [1] (insulin 0.5 mg/kg, delivery agent 200 mg/kg, time period 45 minutes), −78.0%.
Consider `Cc1cccc(OCCCC(=O)O)c1` [Compound 6], for which the melting point lay in the range of 53 to 54 °C. The “Average Glucose Reduction (5 rats/experiment)” value in series [1] (insulin 0.25 mg/kg, delivery agent 100 mg/kg, time period 45 minutes) is recorded as −30.9%. For the same compound, the “Average Glucose Reduction (5 rats/experiment)” value in series [1] (setting [3]) is given as −39.3%. Further, the “Average Glucose Reduction (5 rats/experiment)” value in series [1] (insulin 0.5 mg/kg, delivery agent 200 mg/kg, time period 60 minutes) is reported as −14.4%.
Turning to `Cc1ccc(F)c(OCCCC(=O)O)c1` [Compound 12, 4-(2-Fluoro-5-methyl-phenoxy)-butyric acid], the “Average Glucose Reduction (5 rats/experiment)” value is given as −41.0% in series [1] (insulin 0.25 mg/kg, delivery agent 100 mg/kg, time period 30 minutes); −13.1% in series [1] (insulin 0.5 mg/kg, delivery agent 25 mg/kg, time period 60 minutes); −25.7% in series [1] (insulin 0.5 mg/kg, delivery agent 50 mg/kg, time period 60 minutes); −47.9% in series [1] (setting [4]).
As for `Cc1ccc(C)c(OCCCC(=O)O)c1` [Compound 1, 4-(2,5-Dimethylphenoxy)butyric acid], the “Average Glucose Reduction (5 rats/experiment)” value is listed as −16.1% in series [1] (insulin 0.05 mg/kg, delivery agent 200 mg/kg, time period 15 minutes); −13.0% in series [1] (insulin 0.10 mg/kg, delivery agent 200 mg/kg, time period 30 minutes); −34.0% in series [1] (insulin 0.3 mg/kg, delivery agent 200 mg/kg, time period 45 minutes); −31.4% in series [1] (setting [4]); −60.6% in series [1] (setting [3]).
